GI50 and TGI data for 10 compounds are collected here from PubChem BioAssay (NCI).

The structures appear in SMILES notation. Values joined by “and” are separate entries in the source; they are usually repeats but may differ in a detail not shown here. Equal values may be shown once.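 Results reflect a 48-hour exposure of cells in 96-well plates to compound at five concentrations. At the GI50, growth is halved. TGI marks complete inhibition of growth.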

Some test systems named below: A498 renal; A549 NSCLC; LOX IMVI melanoma; NCI-H23 lung; PC-3 prostate; SF-268 CNS; SK-OV-3 ovarian; SN12C renal; TK-10 renal; SW-620 colon.
What all share (test): growth of human tumour cells (NCI), 48 h

Take `COc1ccc2cc1Oc1ccc(cc1)CC1c3c(cc(OC)c4c3Oc3cc5c(cc3O4)CCNC5C2)CCN1C` (stereo not given): the GI50 with A498 renal was 1.64 µM; in the experiment on NCI-H23 lung it was 1.53 µM; in the experiment with SK-OV-3 ovarian, 1.74 µM; in the experiment with SN12C renal it was 1.82 µM; in the experiment on TK-10 renal, 1.74 µM. The TGI in the experiment with A498 renal was 3.7 µM and 3.02 µM; in the experiment with A549 NSCLC it was 4.07 µM; with LOX IMVI melanoma it was 3.22 µM; in the experiment on NCI-H23 lung it was 4.54 µM and 3.22 µM; with PC-3 prostate it was 3.72 µM and 3.23 µM; in the experiment with SF-268 CNS, 3.84 µM. Further, the TGI was 15.5 µM and 3.11 µM in the experiment on SK-OV-3 ovarian; 3.89 µM and 3.3 µM with SN12C renal; 3.68 µM and 3.12 µM in the experiment on TK-10 renal.

For `CC(C)(C)OC(=O)CC(S(=O)(=O)c1ccccc1)S(=O)(=O)c1ccccc1`, the GI50 in the experiment on A498 renal was 13.2 µM; with A549 NSCLC, 18.3 µM; in the experiment on LOX IMVI melanoma, 13.8 µM; with NCI-H23 lung it was 14.6 µM; in the experiment with PC-3 prostate it was 15.1 µM; in the experiment on SF-268 CNS it was 16.5 µM. In addition, the GI50 in the experiment on SN12C renal was 15.4 µM; in the experiment with SW-620 colon, 1.64 µM; in the experiment with TK-10 renal it was 1.6 µM. Besides, the TGI with A498 renal worked out at 26.4 µM; in the experiment with A549 NSCLC, 38.9 µM; in the experiment on LOX IMVI melanoma, 33.2 µM; in the experiment with NCI-H23 lung, 32.1 µM; with PC-3 prostate, 29.7 µM; with SF-268 CNS it was 34.4 µM. In addition, the TGI in the experiment on SN12C renal turned out to be 29.6 µM; with SW-620 colon it was 3.17 µM; in the experiment on TK-10 renal it was 3.02 µM.

As to `O=C(Cc1csc2nc(-c3ccc(Br)cc3)cn12)N/N=C/c1ccccc1O`, the GI50 was 6.22 µM with A549 NSCLC; 3.47 µM in the experiment with LOX IMVI melanoma; 3.43 µM in the experiment on NCI-H23 lung; 4.28 µM with PC-3 prostate; over 100 µM with SF-268 CNS; 12.8 µM in the experiment on SK-OV-3 ovarian. The GI50 was 3.34 µM in the experiment with SN12C renal, 3.98 µM with SW-620 colon and 2.05 µM with TK-10 renal. In addition, the TGI is 24.2 µM with A549 NSCLC; 13 µM in the experiment on LOX IMVI melanoma; 14 µM in the experiment on NCI-H23 lung; 16.7 µM in the experiment with PC-3 prostate; over 100 µM with SF-268 CNS; 30.2 µM with SK-OV-3 ovarian. Also, the TGI in the experiment on SN12C renal came out at 16 µM; with SW-620 colon, 17.2 µM; in the experiment on TK-10 renal it was 8.72 µM.

Take `Cc1cn([C@H]2CN(O)C[C@@H](CO)O2)c(=O)[nH]c1=O`: the TGI with A498 renal, with A549 NSCLC, with PC-3 prostate, in the experiment with SF-268 CNS, with SK-OV-3 ovarian and in the experiment on SN12C renal was over 100 µM in each case. The TGI in the experiment with SW-620 colon and in the experiment with TK-10 renal was over 100 µM in each case.

For `CC[C@]1(O)C[C@@H]2CN(CCc3c([nH]c4ccccc34)[C@@](C(=O)OC)(c3cc4c(cc3OC)N(C)[C@H]3[C@@](O)(C(=O)OC)[C@H](OC(=O)CCCBr)[C@]5(CC)C=CCN6CC[C@]43[C@@H]65)C2)C1`, the GI50 was under 0.0114 µM in the experiment with A498 renal; under 0.0166 µM with A549 NSCLC; under 0.0204 µM in the experiment with NCI-H23 lung; 0.0141 µM with PC-3 prostate; 0.197 µM with SF-268 CNS; 0.306 µM in the experiment on SK-OV-3 ovarian. For the same compound, the GI50 with SN12C renal was 0.046 µM; with SW-620 colon it was under 0.0146 µM; in the experiment on TK-10 renal, 2 µM. Also, the TGI in the experiment with A498 renal is under 0.0258 µM; in the experiment with A549 NSCLC it was over 100 µM; in the experiment with NCI-H23 lung, over 100 µM; with PC-3 prostate it was 14.3 µM; in the experiment with SF-268 CNS it was 17.5 µM; with SK-OV-3 ovarian, over 22.2 µM. For the same compound, the TGI in the experiment with SN12C renal, in the experiment with SW-620 colon and in the experiment with TK-10 renal was over 100 µM in each case.

Turning to `O=C(Cn1ccnc1[N+](=O)[O-])NCc1ccc(F)cc1`, the TGI in the experiment on A498 renal, in the experiment with A549 NSCLC, with LOX IMVI melanoma, in the experiment with NCI-H23 lung, with SF-268 CNS and in the experiment on SK-OV-3 ovarian was over 100 µM in each case. Also, the TGI in the experiment on SN12C renal, in the experiment on SW-620 colon and in the experiment with TK-10 renal was over 100 µM in each case.

Take `O=C(Nc1c(Cl)cc([N+](=O)[O-])cc1Cl)C(=O)C(C(=O)c1ccncc1)C1OC(=O)c2ccccc21` (stereo not given): the TGI in the experiment with A498 renal, with A549 NSCLC, in the experiment with LOX IMVI melanoma, in the experiment with NCI-H23 lung, in the experiment on SF-268 CNS and with SK-OV-3 ovarian was over 100 µM each time. The TGI with SN12C renal, in the experiment on SW-620 colon and in the experiment with TK-10 renal was over 100 µM in each case.

Turning to `COc1cc2c(cc1OC)C(Sc1ccc(Cl)cc1)c1c(nc(N)c(C#N)c1N)O2` (stereo not given), the GI50 was 1.73 µM with A498 renal; 1.75 µM with A549 NSCLC; 1.09 µM in the experiment with LOX IMVI melanoma; 1.56 µM in the experiment with PC-3 prostate; 1.65 µM in the experiment on SF-268 CNS; 1.74 µM in the experiment on SK-OV-3 ovarian. For the same compound, the values for the GI50 in the experiment with SN12C renal, with SW-620 colon and with TK-10 renal were 1.51 µM, 1.37 µM and 1.43 µM, respectively. Also, the TGI turned out to be 5.01 µM with A498 renal; 3.36 µM in the experiment on A549 NSCLC; 2.35 µM in the experiment on LOX IMVI melanoma; 3.07 µM in the experiment with PC-3 prostate; 3.17 µM in the experiment with SF-268 CNS; 3.12 µM in the experiment with SK-OV-3 ovarian. The figures for the TGI with SN12C renal, with SW-620 colon and with TK-10 renal were 2.94 µM, 3.14 µM and 2.75 µM, respectively.

In the case of `CCOc1ccccc1NC(=O)C1=C(C)NC(C)=C(C(=O)Nc2ccccc2OCC)C1c1ccc2c(c1)OCO2`, the TGI is 84 µM in the experiment with A498 renal; over 100 µM in the experiment with A549 NSCLC; over 100 µM in the experiment with LOX IMVI melanoma; over 100 µM in the experiment with NCI-H23 lung; over 100 µM with SF-268 CNS; over 100 µM in the experiment with SK-OV-3 ovarian. Also, the TGI in the experiment on SN12C renal, in the experiment with SW-620 colon and in the experiment on TK-10 renal was over 100 µM each time.

As for `CC1(C)N=C(N)N=C(N)N1c1ccc(CCCCCCc2ccc(S(=O)(=O)F)cc2)cc1`, the TGI in the experiment on A549 NSCLC is 2.76 µM; in the experiment with LOX IMVI melanoma it was over 20.9 µM; with NCI-H23 lung, 12.6 µM; with PC-3 prostate, 15.4 µM; with SF-268 CNS it was 31.3 µM; in the experiment with SK-OV-3 ovarian, 23.3 µM. Further, the figures for the TGI with SN12C renal, with SW-620 colon and in the experiment with TK-10 renal were 7.02 µM, 4.44 µM and 15.9 µM, respectively.
